One may read the IC50 as the concentration at which inhibition is half-maximal.

Experiment [1] concerns the target T1, BRAF^V600E (Homo sapiens (Human), UniProt P15056, V600E). The experiment can be described thus: BRAF^V600E kinase activity, Z′-LYTE enzymatic assay (SelectScreen, Invitrogen). Type of experiment: biochemical. The conditions noted are these: 100 μM ATP; read-out: BRAF^V600E Inhibition IC50. As to the method: BRAF kinase assays were performed using the Z′-LYTE™ enzymatic assay (Invitrogen, USA). […] Titrations were performed using a 1:3 dilution. Assays were performed using SelectScreen (Invitrogen).
Target sequence in this assay (P15056 whole entry V600E): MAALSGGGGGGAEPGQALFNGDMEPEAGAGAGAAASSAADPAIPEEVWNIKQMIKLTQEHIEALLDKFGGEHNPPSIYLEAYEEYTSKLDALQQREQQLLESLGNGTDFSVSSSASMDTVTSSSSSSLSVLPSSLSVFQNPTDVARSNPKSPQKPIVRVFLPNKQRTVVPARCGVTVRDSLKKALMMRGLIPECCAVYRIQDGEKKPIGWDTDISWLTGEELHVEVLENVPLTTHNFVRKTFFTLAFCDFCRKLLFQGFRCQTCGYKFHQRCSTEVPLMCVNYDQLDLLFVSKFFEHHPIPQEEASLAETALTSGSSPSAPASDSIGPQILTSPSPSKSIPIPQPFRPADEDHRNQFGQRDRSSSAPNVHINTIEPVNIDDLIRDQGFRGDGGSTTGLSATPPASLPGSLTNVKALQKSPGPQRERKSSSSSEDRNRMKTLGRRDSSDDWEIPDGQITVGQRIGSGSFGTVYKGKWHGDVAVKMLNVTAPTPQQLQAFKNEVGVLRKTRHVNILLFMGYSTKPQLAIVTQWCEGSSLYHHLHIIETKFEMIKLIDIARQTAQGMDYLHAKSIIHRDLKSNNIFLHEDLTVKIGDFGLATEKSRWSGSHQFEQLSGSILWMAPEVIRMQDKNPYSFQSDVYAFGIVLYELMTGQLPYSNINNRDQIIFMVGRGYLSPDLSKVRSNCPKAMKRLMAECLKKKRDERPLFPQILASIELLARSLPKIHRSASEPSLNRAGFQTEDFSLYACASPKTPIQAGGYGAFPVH

In the next experiment the test system is BRAF/CRAF heterodimers. The experiment is described as follows: CRAF co-immunoprecipitation monitoring BRAF/CRAF heterodimerization in cells. Format: cell-based. The conditions noted are these: 1 μM (PHI1) or 1-5 μM (ponatinib), 1 hr.
The test system of the next experiment is BRAF/MEK complex. The experiment is described as follows: MEK co-immunoprecipitation monitoring BRAF/MEK complex formation in cells. Format: cell-based. As to conditions: 1 μM (PHI1) or 1-5 μM (ponatinib), 1 hr.
The next experiment concerns FGFR. The experiment is described as follows: Kinase inhibition of known ponatinib target FGFR. Format: biochemical.
The target in experiment [2] is BRAF monomer (BRAF509H mutant) (Homo sapiens (Human), UniProt P15056, R509H). The experiment can be described thus: Isothermal titration calorimetry with BRAF509H mutant unable to dimerize. Type of experiment: binding. The conditions noted are these: PBS plus 2% DMSO.
Chain of BRAF monomer (BRAF509H mutant) (P15056 443-723 R509H limits assumed): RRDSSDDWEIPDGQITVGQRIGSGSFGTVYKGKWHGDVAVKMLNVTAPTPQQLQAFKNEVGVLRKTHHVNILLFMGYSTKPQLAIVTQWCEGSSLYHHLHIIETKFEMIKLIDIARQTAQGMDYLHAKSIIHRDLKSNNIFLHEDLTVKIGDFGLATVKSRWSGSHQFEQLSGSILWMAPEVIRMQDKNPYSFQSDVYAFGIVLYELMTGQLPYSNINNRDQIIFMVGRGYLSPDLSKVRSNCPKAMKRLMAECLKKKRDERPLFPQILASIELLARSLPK
Method: ITC was recorded using a MicroCal PEAQ-ITC instrument. […] Immediately before each ITC measurement, concentrated protein solution was diluted 0.8× in PBS, matched to 2% DMSO and used in the syringe. Protein was titrated in 18 or 20 injections of 2 l volume until saturation. Thermodynamic parameters were obtained using PEAQ-ITC analysis software and a one-site binding model.
Experiment [3] concerns BRAF^V600E. The experiment is described as follows: Biolayer interferometry, direct binding to purified BRAF. Further details: species or system human. As to the method: Human BRAF kinase domain (residues 443-723) with V600E mutation in addition to designed mutations to improve expression in E. coli as previously described^12 was cloned into the first multiple cloning site of a pET-28a vector, which expresses a hexa-histidine tag at the N-terminus of BRAF. Recombinant protein was transformed and expressed into E. coli strain BL21-Codon Plus(DE3)-RIPL (Agilent Technologies). Protein purification was performed by a rapid two-step procedure using nickel-affinity chromatography (Ni-NTA) followed by size exclusion chromatography with Superdex200 HR 10/30 (GE Healthcare).
BRAF was biotinylated using EZ-Link™ Sulfo NHS-LC-LC-Biotin (Invitrogen) in phosphate-buffered saline (PBS) according to manufacturer instructions. Excess biotin was removed using size exclusion chromatography. Freshly biotinylated protein was immobilized on Super Streptavidin biosensors (SSA) to high levels (6-8 nm) followed by quenching with biocytin. Compound binding experiments were performed at 25° C. in PBS, 0.01% Tween-20 and 2% DMSO. To reference for bulk solvent effects, binding curves were corrected using data from control protein-free SSA biosensors, which were included in each experiment and were treated similarly to protein-loaded sensors.
Background: In BLI a coated tip is dipped into the sample, and binding shifts an interference pattern.

The target in the next experiment is FLT3 (Homo sapiens (Human), UniProt P36888). The experiment is described as follows: Kinase inhibition of known ponatinib target FLT3. Type of experiment: biochemical.
Chain of FLT3 (P36888 27-993, species assumed): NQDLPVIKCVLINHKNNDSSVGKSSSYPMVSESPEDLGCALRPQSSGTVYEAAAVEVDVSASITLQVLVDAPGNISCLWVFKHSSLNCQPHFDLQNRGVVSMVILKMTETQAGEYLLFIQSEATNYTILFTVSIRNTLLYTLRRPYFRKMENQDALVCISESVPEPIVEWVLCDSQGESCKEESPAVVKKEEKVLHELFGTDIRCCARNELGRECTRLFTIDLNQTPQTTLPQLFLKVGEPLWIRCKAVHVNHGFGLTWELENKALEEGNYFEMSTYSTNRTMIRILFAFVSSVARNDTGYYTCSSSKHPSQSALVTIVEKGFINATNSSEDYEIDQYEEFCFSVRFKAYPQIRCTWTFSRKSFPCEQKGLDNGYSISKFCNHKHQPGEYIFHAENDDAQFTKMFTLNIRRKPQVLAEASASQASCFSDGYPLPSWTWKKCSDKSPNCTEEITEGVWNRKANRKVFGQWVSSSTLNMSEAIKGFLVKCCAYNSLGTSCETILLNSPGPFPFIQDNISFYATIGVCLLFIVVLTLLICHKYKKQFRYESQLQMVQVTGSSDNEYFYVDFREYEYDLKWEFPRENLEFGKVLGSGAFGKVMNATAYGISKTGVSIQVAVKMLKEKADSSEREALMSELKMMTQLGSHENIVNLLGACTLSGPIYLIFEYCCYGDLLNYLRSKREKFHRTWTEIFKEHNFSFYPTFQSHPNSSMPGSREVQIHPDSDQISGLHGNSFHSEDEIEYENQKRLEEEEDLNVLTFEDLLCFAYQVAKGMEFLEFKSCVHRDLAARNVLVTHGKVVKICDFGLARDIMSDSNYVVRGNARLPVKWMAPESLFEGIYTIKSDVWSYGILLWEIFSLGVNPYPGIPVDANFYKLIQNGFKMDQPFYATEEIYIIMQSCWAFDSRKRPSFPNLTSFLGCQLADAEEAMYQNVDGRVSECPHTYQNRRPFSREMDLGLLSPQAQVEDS
Experiment [4] concerns p61BRAF^V600E dimers (SKMEL239-C4 cells). The experiment is described as follows: pMEK/pERK inhibition by western blot in SKMEL239-C4 melanoma cells. Format: cell-based. As to the method: (§1) Cell lines were purchased from ATCC or provided by Poulikos Poulikakos laboratory at Icahn School of Medicine at Mount Sinai. A375, SKMEL30 and SKMEL2 cells were grown in Dulbecco's modified Eagle's medium (DMEM) with 10% fetal bovine serum (FBS), 1% Pen-Strep, 1% Glutamine. […] CALU6 cells were grown in Roswell Park Memorial Institute medium (RPMI) with 10% fetal bovine serum (FBS), 1% Pen-Strep, 1% Glutamine.

Experiment [5] concerns BRAF^V600E monomers (A375 cells). The experiment is described as follows: pMEK/pERK inhibition by western blot in A375 melanoma cells. Type of experiment: cell-based. The conditions noted are these: compared to ponatinib. As to the method:
as §1
For orientation: A western blot detects proteins with antibodies after separation by electrophoresis.

Experiment [6] concerns SMEL239 C4 melanoma cells. The experiment is described as follows: Cell viability assay (Cell-Titer Glo), SKMEL239 C4. Format: cell-based. As to conditions: 72 hours. As to the method:
For cell viability assays, we followed the manufacturer's protocol for Cell-Titer Glo (Promega). In brief, cells were plated in 96-well plates at a density of 5000 cells per well. The next day, cells were treated with increasing concentrations of inhibitors for 72 hours at 37° C. At the end of the incubation period, 100 µL of Cell-Titer Glo (Promega) was added to each well and further incubated for 15 min. at room temperature. Cell viability was determined by measuring luminescence and was detected by a F200 PRO microplate reader (TECAN). Viability assays were performed in at least triplicate and the data normalized to vehicle-treated control wells. IC50 values were determined by nonlinear regression analysis using Prism software (Graphpad).

Experiment [7] has as its target T1, BRAF^V600E. The experiment is described as follows: In vitro kinase assay, BRAF^V600E activity to phosphorylate recombinant MEK (western blot). Format: biochemical. The conditions noted are these: western blot readout.
Target sequence in this assay (P15056 457-717 V600E): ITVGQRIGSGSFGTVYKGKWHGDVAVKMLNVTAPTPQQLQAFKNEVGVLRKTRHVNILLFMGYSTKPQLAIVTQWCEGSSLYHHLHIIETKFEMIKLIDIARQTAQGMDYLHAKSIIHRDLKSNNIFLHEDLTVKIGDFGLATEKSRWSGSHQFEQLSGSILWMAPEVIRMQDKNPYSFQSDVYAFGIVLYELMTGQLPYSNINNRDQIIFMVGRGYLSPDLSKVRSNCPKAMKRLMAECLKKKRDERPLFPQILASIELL
Method: (§2) Western blots were performed from whole cell lysates (WCL) prepared in lysis buffer containing 50 mM Tris-HCl pH7.5, 1% NP40, 150 mM NaCl, 1 mM EDTA and 10% glycerol in the presence of protease inhibitor cocktail (Roche). […] Co-immunoprecipitation assays were performed from whole cell lysate prepared in lysis buffer in the presence of protease inhibitor cocktail (Roche) and incubated at 4° C. overnight with gentle rotation, then protein G beads were added and incubated for 2 hrs more at 4° C. Kinase activity assay were performed following manufactured protocol with some modifications (Millipore). In brief, BRAF and CRAF kinase domain, and MEK1 recombinant proteins were incubated for 15 min with inhibitors, then corresponding substrates were added and incubated for 30 min at 30° C. and assay for western blot.
A further experiment deals with CRAF (Homo sapiens (Human), UniProt P04049). The experiment can be described thus: In vitro CRAF kinase activity assay (western blot). Format: biochemical.
Chain of CRAF (P04049 349-609, species assumed): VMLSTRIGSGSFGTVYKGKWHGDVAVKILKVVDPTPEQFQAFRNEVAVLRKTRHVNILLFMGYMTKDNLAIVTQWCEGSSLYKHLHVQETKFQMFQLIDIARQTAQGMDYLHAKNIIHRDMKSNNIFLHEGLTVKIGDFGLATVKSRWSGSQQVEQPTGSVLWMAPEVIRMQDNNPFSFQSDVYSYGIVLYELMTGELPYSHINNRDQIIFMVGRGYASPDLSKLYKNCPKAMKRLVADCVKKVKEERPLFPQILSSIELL
For the next experiment, the system named is ERK signaling. The experiment is described as follows: Inhibition of ERK signaling in BRAF^V600E, p61BRAF^V600E and RAS mutant/BRAF^WT cell lines (immunoblot). As to conditions: 1 μM or 5 μM, 1 hr, all cell lines. Type of experiment: cell-based. The protocol: as §1

Method for BRAF/CRAF heterodimers: as §2
Method for BRAF/MEK complex: as §2

On to `COc1cc(N2CCN(CCNCc3ccc(NC(=O)c4ccc(C)c(C#Cc5cnc6cccnn56)c4)cc3C(F)(F)F)CC2)ncn1` [Cmp. 4, 3-(imidazo[1,2-b]pyridazin-3-ylethynyl)-N-(4-(((2-(4-(6-methoxypyrimidin-4-yl)piperazin-1-yl)ethyl)amino)methyl)-3-(trifluoromethyl)phenyl)-4-methylbenzamide], for which, at BRAF^V600E [1], the IC50 came out at 48 nM.
Consider `Cc1ccc(C(=O)Nc2ccc(CNCCN3CCC(=O)CC3)c(C(F)(F)F)c2)cc1C#Cc1cnc2cccnn12` [Cmp. 5, 3-(imidazo[1,2-b]pyridazin-3-ylethynyl)-4-methyl-N-(4-(((2-(4-oxopiperidin-1-yl)ethyl)amino)methyl)-3-(trifluoromethyl)phenyl)benzamide], for which, at BRAF^V600E [1], the half-inhibitory concentration (IC50) was determined as 30.7 nM.
Still for that read-out and setting: the value for `Cc1ccc(C(=O)Nc2ccc(CNCCN3CCN(S(C)(=O)=O)CC3)c(C(F)(F)F)c2)cc1C#Cc1cnc2cccnn12` [Cmp. 6, 3-(imidazo[1,2-b]pyridazin-3-ylethynyl)-4-methyl-N-(4-(((2-(4-(methylsulfonyl)piperazin-1-yl)ethyl)amino)methyl)-3-(trifluoromethyl)phenyl)benzamide] was 29.4 nM.
On to `Cc1ccc(C(=O)Nc2ccc(CNCCc3ccncn3)c(C(F)(F)F)c2)cc1C#Cc1cnc2cccnn12` [Cmp. 7, 3-(imidazo[1,2-b]pyridazin-3-ylethynyl)-4-methyl-N-(4-(((2-(pyrimidin-4-yl)ethyl)amino)methyl)-3-(trifluoromethyl)phenyl)benzamide], for which the half-maximal inhibitory concentration (IC50) at BRAF^V600E [1] is 44.3 nM.
With `C#Cc1cc(C(=O)Nc2ccc(CNCCN3CCN(C(=O)OC)CC3)c(C(F)(F)F)c2)ccc1C` [Cmp. 8, Methyl 4-[2-([[4-(3-Ethynyl-4-Methylbenzamido)-2-(Trifluoromethyl)Phenyl]Methyl] Amino)Ethyl]Piperazine-1-Carboxylate], the IC50 at BRAF^V600E [1] was 1790 nM.
With `C#Cc1cc(C(=O)Nc2ccc(CNCCN3CCN(C(=O)OC(C)(C)C)CC3)c(C(F)(F)F)c2)ccc1C` [Cmp. 9, Tert-Butyl4-[2-([[4-(3-Ethynyl-4-Methylbenzamido)-2-(Trifluoromethyl)Phenyl]Methyl] Amino)Ethyl]Piperazine-1-Carboxylate], the IC50 at BRAF^V600E [1] stood at 10900 nM.
As to `C#Cc1cc(C(=O)Nc2ccc(CNCCN3CCOCC3)c(C(F)(F)F)c2)ccc1C` [Cmp. 10, 3-ethynyl-4-methyl-N-(4-(((2-morpholinoethyl)amino)methyl)-3-(trifluoromethyl)phenyl)benzamide], the IC50 at BRAF^V600E [1] is 1360 nM.
Still for that read-out and setting: the result for `C#Cc1cc(C(=O)Nc2ccc(CNCCN3CCN(c4ccccc4)CC3)c(C(F)(F)F)c2)ccc1C` [Cmp. 11, 3-Ethynyl-4-Methyl-N-[4-([[2-(4-Phenylpiperazin-1-Yl)Ethyl]Amino]Methyl)-3-(Trifluoromethyl)Phenyl] benzamide] reads 8940 nM; that for `C#Cc1cc(C(=O)Nc2ccc(CNCCN3CCNCC3)c(C(F)(F)F)c2)ccc1C` [Cmp. 12, 3-Ethynyl-4-Methyl-N-[4-([[2-(Piperazin-1-Yl)Ethyl]Amino]Methyl)-3-(Trifluoromethyl)Phenyl] benzamide], 11900 nM.
Take `Cc1ccc(C(=O)Nc2ccc(CNCCN3CCNCC3)c(C(F)(F)F)c2)cc1C#Cc1cnc2cccnn12` [Cmp. 13, 3-(2-[imidazo[1,2-b]pyridazin-3-yl]ethynyl)-4-methyl-n-[4-([[2-(piperazin-1-yl)ethyl]amino]methyl)-3-(trifluoromethyl)phenyl]benzamide]: the IC50 at BRAF^V600E [1] worked out at 5.5 nM.
`C#Cc1cc(C(=O)Nc2ccc(CNCCN3CCN(c4ccccn4)CC3)c(C(F)(F)F)c2)ccc1C` [Cmp. 14, 3-Ethynyl-4-Methyl-N-(4-(((2-(4-(Pyridin-2-Yl)Piperazin-1-Yl)Ethyl)Amino)Methyl)-3-(Trifluoromethyl)Phenyl) benzamide]: at BRAF^V600E [1], the IC50 came out at 1830 nM.
As to `Cc1ccc(C(=O)Nc2ccc(CNCCN3CCOCC3)c(C(F)(F)F)c2)cc1C#Cc1cnc2cccnn12` [PHI1, 3-(imidazo[1,2-b]pyridazin-3-ylethynyl)-4-methyl-N-(4-(((2-morpholinoethyl)amino)methyl)-3-(trifluoromethyl)phenyl)benzamide], the “Induction of BRAF/CRAF complexes” value in the experiment on BRAF/CRAF heterodimers is on record as “induces less”. Also, the “Induction of BRAF/MEK complexes” value in the experiment with BRAF/MEK complex was “induces less”. In the experiment with FGFR, the “Reduction of inhibitory activity for FGFR relative to ponatinib” value is 43 fold. In [2], the “Binding affinity for BRAF monomers (ITC)” value is recorded as “high micromolar affinity”. Further, the “Difference in Koff values versus ponatinib (BLI)” value in the experiment on BRAF^V600E [3] is recorded as “no significant difference”. Also, in the experiment with BRAF^V600E [3] (25° C., PBS, 0.01% Tween-20, 2% DMSO), the “Affinity for BRAF^V600E compared to ponatinib (BLI)” value is “higher affinity”. Also, the IC50 at BRAF^V600E [1] is 10.4 nM; in [4] (SKMEL239-C4 cells, 1 hr treatment), 300 to 500 nM. Besides, the “Reduction of inhibitory activity for FLT3 relative to ponatinib” value at FLT3 amounted to 10 fold. The “Co-operativity in second site inhibition of BRAF^V600E dimer (p-ERK IC50 upon Encorafenib pre-treatment)” value in [4] (SKMEL239 C4 cells with vs without Encorafenib pre-treatment) was “positive co-operativity”. For the same molecule, the “Activity against BRAF^V600E monomers in A375 cells” value in [5] is listed as “significantly reduced compared to ponatinib”. Besides, the “Growth inhibition (viability)” value in experiment [6] is “inhibits effectively the growth”.
In the case of `CCN(C)S(=O)(=O)Nc1ccc(F)c(C(=O)c2c[nH]c3ncc(-c4cnc(C5CC5)nc4)cc23)c1F` [PLX7904, reference compound], on BRAF^V600E [1], the IC50 was determined as 6.7 nM.
Regarding `Cc1ccc(C(=O)Nc2ccc(CN3CCN(C)CC3)c(C(F)(F)F)c2)cc1C#Cc1cnc2cccnn12` [Ponatinib], on BRAF^V600E [7], the “Inhibition of BRAF^V600E phosphorylation of recombinant MEK” value was “potent inhibitor”. Moreover, on CRAF, the “Inhibition of CRAF activity” value is listed as “potently inhibited”. For the same molecule, the “Inhibition of ERK signaling” value with ERK signaling is “inhibited ERK signaling”.
With `N#Cc1c(Oc2ccc(F)c(NC(=O)Cc3cccc(C(F)(F)F)c3)c2)ccc2nc(NC(=O)C3CC3)sc12` [TAK-632, reference compound], at BRAF^V600E [1], the IC50 stood at 36.2 nM.

The record behind these values is patent publication US12440494B2, “Compounds useful for inhibiting RAF dimers” (ALBERT EINSTEIN COLLEGE OF MEDICINE, priority 2019, dated 2025).
